What was measured:
pCaskin2 (S878) = assay: Caskin2 S878 phosphorylation (GFP-Trap, western blot) in GE11tetONβ1 cells; type: cell-based; conditions: for EGF-induced phosphorylation of Caskin2 at serine 878 with inhibitor: inhibitor 100 nM, 1 h pretreatment, EGF 100 ng/ml for 15 min; for Caskin2 phosphorylation on S878 after growth factor: EGF 100 ng/ml or PDGF 50 ng/ml, serum-starved 16 h
From the text: To explore the role of Caskin2-S878 further in regulating the Abi1 interaction, we developed a phospho-specific antibody targeting this serine. Unfortunately, high non-specific binding of the phospho-Caskin2 antibody protein sample prevented its consistent use in detecting phosphorylated Caskin2 in western blot analysis of whole-cell lysates. […] Abi1 functions downstream of growth factor receptor signaling to control Rac1-dependent actin rearrangements. Therefore, we hypothesized that Caskin2-S878 phosphorylation might occur downstream of growth factor receptor stimulation. To explore this, we conducted co-IP experiments using GE11^tetONβ1 cells stably expressing Caskin2-FL–GFP stimulated with either EGF or PDGF. […] To gain insight into the kinases involved in the EGF-induced phosphorylation of Caskin2 at serine 878, we pretreated the cells with mTOR (AZD8055) and MEK1/2 (Trametinib) inhibitors for 1 h before stimulation.
(§1) For analysis of protein in whole-cell lysates, cells were washed three times with cold PBS, lysed in Nonidet P-40 lysis buffer [20 mM Tris-HCl pH 7.5, 100 mM NaCl, 1% NP-40), supplemented with Na3VO4 (1.5 mM), NaF (15 mM), protease inhibitor cocktail (1:1000; Sigma-Aldrich) and phosphatase inhibitor cocktail 3 (1:100; Sigma-Aldrich)] and cleared by centrifugation at 14,000 g for 1 h at 4°C. After addition of an equal volume of 4× sample buffer (200 mM Tris-HCl pH 6.8, 10% SDS, 40% glycerol 0,1% Bromophenol Blue and 2% mercaptoethanol) and heating the samples at 95°C for 5 min, the samples were loaded on Novex NuPAGE 4–12% gradient Bis-Tris gels (Invitrogen) and transferred onto Immobilon® PVDF membranes. Membranes were blocked for at least 2 h in 2% BSA in TBST (10 mM Tris-HCl pH 7.5, 150 mM NaCl with 0.05% Tween 20] before incubation with primary antibody overnight at 4°C and with secondary antibody for 1 h at room temperature. After each incubation step, the membranes were washed twice with TBST and twice with TBS (TBST without Tween 20). Finally, proteins were visualized using Clarity™ Western ECL Substrate (Bio-Rad Laboratories), as described previously ([Wang et al., 2020b]).
(§2) GFP-Trap pulldown experiments were performed as follows. Cleared lysates containing equal amounts of proteins, as determined by a Pierce™ BCA Protein Assay, were incubated with GFP-Trap agarose beads (Chromotek) in a rotation wheel for 6 h at 4°C. Beads were washed three times with Nonidet P-40 lysis buffer and two times with cold PBS. Bound proteins and input samples (whole-cell lysates, 1%) were then loaded on gel and transferred to Immobilon-P transfer membranes, after which the blotted proteins were probed with antibodies, as described above.
For EGF- and PDGF-BB-induced stimulation of Caskin2 phosphorylation, cells were serum starved for 16 h in DMEM without FCS. […]

Caskin2–Abi1 = Caskin2–Abi1 binding after growth factor stimulation (GFP-Trap, western blot) in GE11tetONβ1 cells; type: cell-based; conditions: for EGF-stimulated loss of Abi1 binding with inhibitor: inhibitor 100 nM, 1 h pretreatment, EGF 100 ng/ml for 15 min; for Caskin2–Abi1 binding after growth factor: EGF 100 ng/ml or PDGF 50 ng/ml, serum-starved 16 h
Description: (§3) For analysis of protein in whole-cell lysates, cells were washed three times with cold PBS, lysed in Nonidet P-40 lysis buffer [20 mM Tris-HCl pH 7.5, 100 mM NaCl, 1% NP-40), supplemented with Na3VO4 (1.5 mM), NaF (15 mM), protease inhibitor cocktail (1:1000; Sigma-Aldrich) and phosphatase inhibitor cocktail 3 (1:100; Sigma-Aldrich)] and cleared by centrifugation at 14,000 g for 1 h at 4°C.
as §2
For EGF- and PDGF-BB-induced stimulation of Caskin2 phosphorylation, cells were serum starved for 16 h in DMEM without FCS. The serum-starved cells were then treated with 100 ng/ml EGF (Sigma-Aldrich) or 50 ng/ml PDGF-BB (Sigma-Aldrich) at 37°C for the indicated times. Serum-starved cells treated with EGF and the signal transduction inhibitors AZD8055 (mTOR inhibitor, Selleckchem) and Tramatinib (MEK1/2 inhibitor, Selleckchem) were first pre-treated with the inhibitor for 60 min before they were treated with the growth factor for 15 min.

endogenous talin = assay: GFP-Trap pulldown of talin by Caskin2-GFP constructs in COS-7 cells; type: binding; conditions: western blot, n=3
Description: (§4) For transient expression, COS-7 cells were grown to 70% confluence in 10 cm culture dishes and transfected with plasmid DNAs using the DEAE–dextran method ([Schaapveld et al., 1998]). Briefly, 4.5 µg of plasmid DNA was mixed with 500 µg/ml DEAE–dextran in 2.5 ml PBS. Cells were washed two times with PBS and then incubated for 30 min at 37°C with the DEAE–dextran solution. Subsequently, 80 µM chloroquine was added to the cells in 10 ml DMEM with FCS and cells were incubated at 37°C for 3 h. After aspiration of the medium, the cells were treated with 3 ml of DMEM with FCS containing 10% DMSO for 2.5 min. The DMSO solution was then removed and replaced with fresh medium, after which the cells were further incubated for 48–72 h before analysis.
(§5) For analysis of protein in whole-cell lysates, cells were washed three times with cold PBS, lysed in Nonidet P-40 lysis buffer [20 mM Tris-HCl pH 7.5, 100 mM NaCl, 1% NP-40), supplemented with Na3VO4 (1.5 mM), NaF (15 mM), protease inhibitor cocktail (1:1000; Sigma-Aldrich) and phosphatase inhibitor cocktail 3 (1:100; Sigma-Aldrich)] and cleared by centrifugation at 14,000 g for 1 h at 4°C. After addition of an equal volume of 4× sample buffer (200 mM Tris-HCl pH 6.8, 10% SDS, 40% glycerol 0,1% Bromophenol Blue and 2% mercaptoethanol) and heating the samples at 95°C for 5 min, the samples were loaded on Novex NuPAGE 4–12% gradient Bis-Tris gels (Invitrogen) and transferred onto Immobilon® PVDF membranes. […]
(§6) GFP-Trap pulldown experiments were performed as follows. Cleared lysates containing equal amounts of proteins, as determined by a Pierce™ BCA Protein Assay, were incubated with GFP-Trap agarose beads (Chromotek) in a rotation wheel for 6 h at 4°C. […]

talin = assay: GFP-Trap pulldown of talin by Caskin2-GFP constructs in GE11tetON β1 cells; type: binding; conditions: western blot, with and without doxycycline
Description: as §5, §6

HA–Abi1 = assay: GFP-Trap co-IP of HA–Abi1 by Caskin2-GFP constructs in COS-7 cells; type: binding; conditions: for HA–Abi1 binding: GFP-Trap, western blot, three independent experiments
Description: as §4, §1, §2

[1] = tested on: endogenous Abi1, Wasf1, Cyfip2 and Nckap1; assay: GFP-Trap co-IP of endogenous WRC components in GE11tetONβ1 cells; type: binding
Description: as §5, §6

14-3-3 proteins = assay: GFP-Trap co-IP of 14-3-3 proteins in GE11tetONβ1 cells; type: binding
Description: as §5, §6

Abi1 = assay: Immunofluorescence colocalization of Caskin2-GFP constructs with Abi1 in GE11tetONβ1 cells; type: cell-based; conditions: cell periphery
Description: PA-JEB/β4 keratinocytes were seeded on glass coverslips and cultured for 24 h in complete KGM, and then continued to be cultured for a further 16 h in DMEM with 10% FCS. GE11^tetONβ1 and MCF7 cells were seeded on glass coverslips and cultured for 24 h in DMEM with 10% FCS. Cells were fixed in 2% paraformaldehyde and permeabilized with 0.2% Triton X-100 for 5 min, blocked with PBS containing 2% bovine serum albumin (BSA; Sigma-Aldrich) for 45 min and subsequently incubated with primary and secondary antibodies for 1 h. In between antibody steps, the coverslips were washed three times with PBS. Actin fibers were visualized by staining with Phalloidin–Alexa Fluor 647 (Cell Signaling Technology). Nuclei were stained with DAPI. Samples were mounted on glass slides in Mowiol after three washing steps with PBS. Images were acquired with a Leica TCS SP5 confocal microscope with a 63× (NA 1.4) oil objective. Software for image acquisition is Leica LAS AF 3.0.2 ([Wang et al., 2020b]).
Imaging analysis was performed using FIJI software ([Schindelin et al., 2012]). The levels of colocalization between Caskin2 and various other proteins, including integrin β4, FA proteins and CMSC components, was performed using Pearson's co-efficient analysis in the JACoP module of ImageJ ([Carisey et al., 2013]; [Wang et al., 2020b]).

GE11tetONβ1 cells = assay: Cell migration (time-lapse cell motility) of GE11tetONβ1 cells; type: cell-based; conditions: 20 h time-lapse, DMEM 1% FCS; two independent experiments
Description: Cell motility assays were conducted using time-lapse recordings of cells cultured on plastic 12-well plates in DMEM containing 1% FCS and 1% antibiotics. Phase-contrast images were acquired using a Zeiss AxioObserver Z.1 microscope equipped with a heated stage (37°C and 5% CO2), with a 10×/0.30 EC Plan-Neofluar Ph1 objective (Zeiss), captured with a Zeiss AxioCam MRm. Images were acquired every 10 min for 20 h. Cells were tracked manually using ImageJ; tracking data was analyzed using the Chemotaxis Tool plugin (Ibidi).

Caskin2 = assay: GFP-Trap co-IP of Caskin2 by GFP-tagged talin constructs in COS-7 cells; type: binding, Human; conditions: western blot
Description: as §4
as §3, with “4°C. […]” for “4°C.”
as §6

## COc1ccc(-c2ccc3c(N4CCOC[C@@H]4C)nc(N4CCOC[C@@H]4C)nc3n2)cc1CO [AZD8055, reference compound]
pCaskin2 (S878)
  EGF-induced phosphorylation of Caskin2 at serine 878 with inhibitor: reduced phosphorylation of Caskin2
Caskin2–Abi1
  EGF-stimulated loss of Abi1 binding with inhibitor: only Trametinib, either alone or in combination with AZD8055 inhibited the EGF-stimulated loss of Abi1 binding

## CC(=O)Nc1cccc(-n2c(=O)n(C3CC3)c(=O)c3c(Nc4ccc(I)cc4F)n(C)c(=O)c(C)c32)c1 [Trametinib, reference compound]
pCaskin2 (S878)
  EGF-induced phosphorylation of Caskin2 at serine 878 with inhibitor: reduced phosphorylation of Caskin2
Caskin2–Abi1
  EGF-stimulated loss of Abi1 binding with inhibitor: inhibited the EGF-stimulated loss of Abi1 binding

## Caskin2-4A–GFP: GFP-fused Caskin2 mutant with four amino acids (L1183, F1190, L1197, L1201) replaced by alanine
Endogenous talin
  talin binding: failed to pull down endogenous talin

## Caskin2-FL–GFP: full-length Caskin2 fused to GFP
talin
  talin binding: the interaction is independent of integrin β1
HA–Abi1
  HA–Abi1 binding: efficiently pulled down
[1]
  precipitation of endogenous Abi1, Wasf1, Cyfip2 and Nckap1: precipitated endogenous Abi1, Wasf1, Cyfip2 and Nckap1
14-3-3 proteins
  precipitation of 14-3-3 proteins: precipitated with both Caskin2-FL–GFP and Caskin2-PRR^4A–GFP
Abi1
  colocalization with Abi1: colocalized with Abi1 at the cell periphery
GE11tetONβ1 cells
  increase in cell motility compared to GFP-only expression: ~45%

## Caskin2-PRR^4A–GFP: Caskin2–GFP with PxPxxPxR mutated to AxAxxAxA
Endogenous talin
  talin binding: talin binding was unaffected
HA–Abi1
  HA–Abi1 binding: neither of these constructs could precipitate co-expressed HA-tagged Abi1
[1]
  precipitation of endogenous Abi1, Wasf1, Cyfip2 and Nckap1: none of these were precipitated
14-3-3 proteins
  precipitation of 14-3-3 proteins: precipitated with both Caskin2-FL–GFP and Caskin2-PRR^4A–GFP
Abi1
  colocalization with Abi1: no such colocalization was observed
GE11tetONβ1 cells
  cell motility: migrated at a similar speed as GFP-only-expressing cells

## Caskin2-S877D–GFP: phosphomimetic mutant of Caskin2–GFP, S877 to aspartic acid
HA–Abi1
  HA–Abi1 binding: no obvious difference in binding

## Caskin2-S878D–GFP: phosphomimetic mutant of Caskin2–GFP, S878 to aspartic acid
HA–Abi1; co-IP, phosphomimetic mutant
  reduction of HA–Abi1 binding: ~80%

## Caskin2-ΔLD–GFP: Caskin2 construct with the LD motif deleted (L1183–D1202 deleted) fused to GFP
talin
  talin binding: the LD motif is required for the interaction with talin
GE11tetONβ1 cells
  cell motility: no difference in motility between Caskin2-FL–GFP- and Caskin2-ΔLD–GFP- expressing cells

## Caskin2-ΔPRR–GFP: Caskin2–GFP lacking amino acids 746–1035
Endogenous talin
  talin binding: talin binding was unaffected
HA–Abi1
  HA–Abi1 binding: neither of these constructs could precipitate co-expressed HA-tagged Abi1
Abi1
  colocalization with Abi1: no such colocalization was observed
GE11tetONβ1 cells
  cell motility: migrated at a similar speed as GFP-only-expressing cells

## EGF: growth factor (Sigma-Aldrich)
pCaskin2 (S878)
  Caskin2 phosphorylation on S878 after growth factor: increase in Caskin2 phosphorylation on S878 within 5 min
Caskin2–Abi1
  Caskin2–Abi1 binding after growth factor: reduction in Caskin2–Abi1 binding

## PDGF
pCaskin2 (S878)
  Caskin2 phosphorylation on S878 after growth factor: increase in Caskin2 phosphorylation on S878 within 5 min
Caskin2–Abi1
  Caskin2–Abi1 binding after growth factor: reduction in Caskin2–Abi1 binding

## Talin-R2E–GFP: talin mutant carrying two reverse charge mutations (R1523E and K1530E)
Caskin2
  Caskin2 binding to talin construct: slightly increased binding

## full-length exogenous talin: full-length exogenous talin, GFP-tagged
Caskin2
  Caskin2 binding to talin construct: only limited binding
